Data: US7202254B2, “Antibacterial compounds: process for their preparation and pharmaceutical compositions containing them” (Dr. Reddy's Laboratories Limited, priority 2002, dated 2007)
≈ marks a conversion by molar mass, not a printed value.

Columns and labels:
[1] = tested on: Staphylococcus aureus ATCC 33591; test: MIC by broth microdilution, Staphylococcus aureus DRCC 019 (MRSA); type: cell-based; details: DRCC 019 = ATCC 33591, MRSA, Mueller Hinton Broth, overnight 37° C., read-out: Antimicrobial Screening (MIC) Staphylococcus aureus 019 MRSA
Method: (§1) Minimum Inhibiton Concentrations (MICs) were determined by broth microdilution technique as per the guidelines prescribed om the fifth edition of Approved Standards, NCCLS document M7-A5 Vol 20-No 2, 2000 Villinova, Pa.
(§2) Initial stock solution of the test compound was prepared in DMSO. Subsequent two fold dilutions were carried out in sterile Mueller Hinton Broth (Difco) (MHB).
(§3) Frozen cultures stocks were inoculated into 50 mL sterile MHB in 250 mL Erlyn Meyer flasks.
(§4) Flasks were incubated for 4 to 5 h at 35° C. on a rotary shaker at 150 rpm. Inoculum was prepared by diluting the culture in sterile MHB to obtain a turbidity of 0.5 McFarland standard. This corresponds to 1–2×10^8 CFU/mL. The stock was further diluted in sterile broth to obtain 1–2×10^6 CFU/mL. 50 μl of the above diluted inoculum was added from 1–10 wells. The plates were incubated overnight at 37° C.

[2] = tested on: Staphylococcus aureus ATCC 49951; test: MIC by broth microdilution, Staphylococcus aureus DRCC 213 (Smith S); type: cell-based; details: ATCC49951, DRCC 213 = ATCC 49951, Smith S, Mueller Hinton Broth, overnight 37° C., read-out: Antimicrobial Screening (MIC) Staphylococcus aureus 213 Smith S
Method: as §1, §2, §3, §4

[3] = tested on: Staphylococcus aureus ATCC 29213; test: MIC by broth microdilution, Staphylococcus aureus DRCC 035 (S); type: cell-based; details: ATCC29213, DRCC 035 = ATCC 29213, S, Mueller Hinton Broth, overnight 37° C., read-out: Antimicrobial Screening (MIC) Staphylococcus aureus 035 S
Method: as §1, §2, §3, §4

[4] = tested on: Enterococcus faecalis ATCC 29212; test: MIC by broth microdilution, Enterococcus sp DRCC 034 (S); type: cell-based; details: ATCC29212; DRCC 034 = Enterococcus faecalis ATCC 29212, S; Mueller Hinton Broth, overnight 37° C.; read-out: Antimicrobial Screening (MIC) Enterococcus sp 034 S
Method: as §1, §2, §3, §4

[5] = tested on: Enterococcus faecalis NCTC 12201; test: MIC by broth microdilution, Enterococcus sp DRCC 153 (R); type: cell-based; details: NCTC12201; DRCC 153 = Enterococcus faecalis NCTC 12201, R; Mueller Hinton Broth, overnight 37° C.; read-out: Antimicrobial Screening (MIC) Enterococcus sp 153 R
Method: as §1, §2, §3, §4

[6] = tested on: Enterococcus faecium NCTC 12202; test: MIC by broth microdilution, Enterococcus sp DRCC 154 (R); type: cell-based; details: NCTC12202; DRCC 154 = Enterococcus faecium NCTC 12202, R; Mueller Hinton Broth, overnight 37° C.; read-out: Antimicrobial Screening (MIC) Enterococcus sp 154 R
Method: as §1, §2, §3, §4

[7] = tested on: Escherichia coli ATCC 25922; test: MIC by broth microdilution, E coli DRCC 18 (S); type: cell-based; details: ATCC25922; DRCC 018 = Escherichia coli ATCC 25922, S; Mueller Hinton Broth, overnight 37° C.; read-out: Antimicrobial Screening (MIC) E coli 18 S
Method: as §1, §2, §3, §4

| MIC [1] [µg/mL] | MIC [2] [µg/mL] | MIC [3] [µg/mL] | MIC [4] [µg/mL] | MIC [5] [µg/mL] | MIC [6] [µg/mL] | MIC [7] [µg/mL] | melting point [°C] | Structure (SMILES) |
| --- | --- | --- | --- | --- | --- | --- | --- | --- |
| 1 (≈ 2.83 µM) | 1 (≈ 2.83 µM) | 1 (≈ 2.83 µM) | 2 (≈ 5.66 µM) | 1 (≈ 2.83 µM) | 2 (≈ 5.66 µM) | 32 (≈ 90.5 µM) | 190 | CC(=S)NCc1cn(-c2cc(F)c(N3CCOCC3)c(F)c2)nn1 [Example 51, N-[1-(3,5-Difluoro-4-morpholin-4-yl-phenyl)-1H-[1,2,3]triazol-4-ylmethyl]-thioacetamide] |
| 2 (≈ 5.01 µM) | 2 (≈ 5.01 µM) | 4 (≈ 10 µM) | 2 (≈ 5.01 µM) | 2 (≈ 5.01 µM) | 8 (≈ 20 µM) | > 32 | 184 | COC(=S)NCc1cn(-c2ccc(N3CCS(=O)(=O)CC3)c(F)c2)nn1 [Example 61, {1-[4-(1,1-Dioxo-1lambda*6*-thiomorpholin-4-yl)-3-fluoro-phenyl]-1H-[1,2,3]triazol-4-ylmethyl}-thiocarbamic acid O-methyl ester] |
| 2 (≈ 5.96 µM) | 2 (≈ 5.96 µM) | 2 (≈ 5.96 µM) | 2 (≈ 5.96 µM) | 2 (≈ 5.96 µM) | 2 (≈ 5.96 µM) | 256 (≈ 763 µM) | 192 | CC(=S)NCc1cn(-c2ccc(N3CCOCC3)c(F)c2)nn1 [Example 52, N-[1-(3-Fluoro-4-morpholin-4-yl-phenyl)-1H-[1,2,3]triazol-4-ylmethyl]-thioacetamide] |
| 2 (≈ 5.44 µM) | 2 (≈ 5.44 µM) | 4 (≈ 10.9 µM) | 8 (≈ 21.8 µM) | 8 (≈ 21.8 µM) | 8 (≈ 21.8 µM) | > 32 | 168 | COC(=S)NCc1cn(-c2ccc(N3CCSCC3)c(F)c2)nn1 [Example 59, [1-(3-Fluoro-4-thiomorpholin-4-yl-phenyl)-1H-[1,2,3]triazol-4-ylmethyl]-thiocarbamic acid O-methyl ester] |
| 1 (≈ 2.61 µM) | 1 (≈ 2.61 µM) | 2 (≈ 5.22 µM) | 2 (≈ 5.22 µM) | 1 (≈ 2.61 µM) | 4 (≈ 10.4 µM) | > 32 | 198 | COC(=S)NCc1cn(-c2ccc(N3CC[S+]([O-])CC3)c(F)c2)nn1 [Example 60, {1-[3-Fluoro-4-(1-oxo-lambda*4*-thiomorpholin-4-yl)-phenyl]-1H-[1,2,3]triazol-4-ylmethyl}-thiocarbamic acid O-methyl ester] |
